Source: patent US20140155445A1, “Compounds and Methods for Treating Cancer and Diseases of the Central Nervous System” (Osta Biotechnologies Inc., priority 2007, published 2014)
“Also recorded” adds a separate entry of the source.

Tests used:
[1] = tested on: HCT-116 colorectal carcinoma; assay: Colorectal carcinoma model HCT-116 in SCID mice; format: in vivo, human
Description: (§1) Control groups received the vehicle alone.

[2] = tested on: SKMEL 28-V+ cells (human melanoma); assay: Melanoma model SKMEL-V+ in SCID mice (combination study); format: in vivo; conditions: QC-56 60 mg/kg/ip; Dacarbazine 55 mg/kg
Protocol: SKMEL 28-V+ cells (human melanoma). These cells were originally from the ATCC and then engineered to overexpress VEGF. […] The cells were tested to be free of mycoplasma.
as §1

SKMEL-V+ cells [3] = assay: Melanoma efficacy study of QC-199, SKMEL-V+ cells s.c. in Scid mice; format: in vivo, human; conditions: 10 mg/kg i.v. injection, 2 cycles, d1, 3, 5 per cycle
Protocol: BD PharMingen, San Diego, Calif.). Cryostat sections were used for CD31 staining. […] Sections were rehydrated in PBS and then blocked with 5% normal goat serum for 1 h. The sections were then incubated overnight at 4° C. with CD31 antibody diluted 1:25 in 3% BSA-PBS. […] Sections were counterstained with Harris' hematoxylin and mounted. Slides were analyzed by conventional light microscopy and photographed using color slides (Eastman Kodak, Rochester, N.Y.). Balb/c Scid mice, 6 week-old, were obtained from Charles River Laboratories, St. Zotique, PQ, Canada. The mice weighed 18-22 g. The experiments were approved by the Animal Care Committee, McGill University, Montreal. The animals were housed in individual cages (4 per cage) and were fed standard rodent chow and water ad libitum. […] When the tumors become palpable (size of a rice), mice weights were measured with a digital balance accurate to 0.05 g. […] For the infusion, mice were anesthetized using isoflurane-based system ([…] COMPACT NRB, 3975-0800-000). For the infusion, a mini pump (NE-1800, New Era Pump Systems, Inc.) was used to infuse the compound via the tail vein during a 2 h period. […] At experiment termination, mice were anesthetized with isoflurane and sacrificed by cervical dislocation. Tumors were dissected and tumor weights were measured using a digital balance.

[4] = tested on: hHO-1 transfected primary rat astroglial cultures; assay: Protein carbonyl ELISA in hHO-1-transfected primary rat astroglia (whole-cell and mitochondrial compartments); format: cell-based
Protocol: Cells were grown in Ham's F12 and high glucose DMEM (50:50 v/v) supplemented with 10 mM HEPES, 5% heat-inactivated horse serum, 5% heat-inactivated fetal bovine serum, and penicillin-streptomycin (50 U/mL and 50 μg/mL, respectively).
(§2) Upon reaching >90% confluence, 1×10^6 cells were transiently transfected with 4.0 μg of plasmid DNA-Lipofectamine 2000 complex using Lipofectamine 2000 method according to manufacturer instructions (Invitrogen). […] 12 μg of plasmid DNA and 16 μl of Lipofectamine 2000 reagent were diluted in 1.5 mL opti-MEM I reduced serum medium and incubated for 5 minutes at room temperature with gentle mixing. The two solutions were combined, incubated at room temperature for 20 minutes to promote formation of DNA-lipid complexes and administered to the cells. 2 mL opti-MEM I reduced serum medium was added to the flasks to ensure coverage of the monolayer by the transfection mixture. Following incubation for 6 hours at 37° C., the transfection mixture was replaced with 10 mL of complete media without antibiotics.
The cells were sonicated (Sonics & Materials, Danbury, Conn.) at a power level of 50 for 3×20 s in a cooled water bath. […] Whole-cell and mitochondrial preparations were assayed for protein carbonyls as described below.
Protein carbonyls were reacted with 2,4-dinitrophenylhydrazine (DNP) and the hydrazone adducts were detected with anti-DNP antisera. Quantification was achieved by comparison with oxidized BSA standards. Oxidized (carbonylated) BSA was prepared by reacting natural BSA (at 50 mg/mL in PBS) with hypochlorous acid (5 mM) for 1 h at 37° C., followed by overnight dialysis against PBS at 4° C. […] The pellet was resuspended in 2 mL of same buffer, sonicated on ice 2×15 s at 20 W and centrifuged for 20 min at 4° C. at 1,303×g. Protein concentration of supernatant was measured with the RC DC protein assay based on the Lowry protocol (Bio-Rad Laboratories, Hercules, Calif.). All samples were adjusted to 4.0 mg protein/mL. […] Five microliters aliquots of each reaction mixture were mixed with 1 mL PBS and 200 μL replicates were added per well to 96-well immunoplates and incubated overnight at 4° C. After washing with PBS, nonspecific binding sites were blocked with 0.1% Tween 20 in PBS. […] A 6-point standard curve of reduced and oxidized BSA was generated for each plate analyzed. Specific absorbance for each sample was calculated by subtracting basal absorbance of the DNP reagent from the total absorbance.

[5] = target: T1, human HO-1 (hHO-1) in transfected astroglia (Homo sapiens, UniProt P09601); assay: HO enzyme activity (bilirubin formation) in hHO-1-transfected astrocytes; format: cell-based
T1 construct: containing the entire protein-coding region (866 bp) of the human HO-1 gene; expressed in transfected cells; host or cells: primary rat astrocytes, transient transfection with pcDNA3.1/Zeo.CMV.Flag.hHO-1 (Lipofectamine 2000)
T1 sequence (P09601 1-288): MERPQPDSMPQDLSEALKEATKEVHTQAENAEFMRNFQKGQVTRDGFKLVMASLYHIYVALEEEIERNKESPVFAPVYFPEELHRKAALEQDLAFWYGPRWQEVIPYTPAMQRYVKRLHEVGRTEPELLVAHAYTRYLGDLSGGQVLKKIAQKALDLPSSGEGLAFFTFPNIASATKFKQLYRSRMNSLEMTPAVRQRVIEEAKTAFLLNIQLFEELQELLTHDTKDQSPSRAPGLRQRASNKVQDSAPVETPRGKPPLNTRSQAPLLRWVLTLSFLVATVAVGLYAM
Protocol: as §2
A young adult male rat was gas-anesthetized, laid on ice and systemically perfused with ice-cold 0.9% NaCl to get rid of all blood from liver. The liver was then excised on ice and transferred to a cold room (4° C.) and cut into small pieces in cold 0.9% NaCl (3 mL per gram of tissue) with surgical scissors in and placed in a 50 mL tube. The tissue chunks were homogenized with an electric tissue homogenizer and centrifuged at 150×g for […] at 4° C. Similarly, all of the following steps, including centrifugations, were performed at 4° C. The supernatant was centrifuged at 18,000×g for 10 min and further at 30,000×g for 30 min. A saturated solution of ammonium sulfate was added to the 30,000×g supernatant to attain 40% saturation and placed on ice for 10 min. The mixture was centrifuged at 10,000×g for 10 min and supernatant was recovered and transferred to a fresh tube. Sixty percent of saturation was achieved by adding saturation solution of ammonium sulfate to the supernatant. The mixed solution was centrifuged again at 10,000×g for 10 min and […]. […] The dialysate was centrifuged at 10,000 g for 10 min and pellet was discarded. The protein concentration of the supernatant was measured with Bradford reagent (BioRad laboratories, Hercules, Calif.) and adjusted to 10 mg/mL with 0.01 M KPO4, pH7.4. The supernatant was aliquoted and stored at −20° C. ready for use.
Cytosol extracts were prepared for HO activity measurement by the method of Ryter (Ryter, Kvam, Tyrrell 2000). Astroglial monolayers were washed with ice-cold PBS and scraped in ice-cold PBS-EDTA (1 mM, pH 8.0) containing 50 μg/mL protease inhibitor (AEBSF), centrifuged at 150×g at 4° C. and resuspended in 20 mM Tris-HCl (pH 7.4) and 0.25 M sucrose containing protease inhibitors. Cell suspensions were sonicated on ice 2×15 s at 20 W and centrifuged for 20 min at 4° C. at 15,000×g. Protein concentration of supernatant was measured with Bradford method. […] Reaction mixtures were incubated at 37° C. in the dark for 60 min with hard vortex every 10 min. […] HO activity was calculated as nanomoles bilirubin per milligram protein per min, assuming an extinction coefficient of 40/mM/cm in chloroform (see FIG. 8).
Cells were rinsed twice with cold PBS (pH 7.4) and scraped in iced lysis buffer consisting of 1% Nonidet P-40, 50 mM Tris.HCl (pH 7.4), 30 mM NaCl, 25 mM β-glycerophosphate, 10 mM EDTA, 10 mM EGTA, 1 mM MgCl2, and protease inhibitors (10 mM sodium fluoride, 50 μg/mL AEBBSF, 5 μg/mL leupeptin, 5 μg/mL pepstatin, 5 μg/mL aprotinin). […] Protein contents were determined using the Bradford method. […]

SKMEL-V+ cells [6] = assay: Cell proliferation / survival, MTT assay, SKMEL-V+ cells; format: cell-based, human; conditions: 6.25 μM to 100 μM, 96 hours
Protocol: Exponentially growing SKMEL-V+ cells (1×10^3) were seeded in 96-well plates in complete medium. […] Cell survival was evaluated 96 hours later using the MTT metabolic assay (Benlimame N, He Q, Jie S, et al. FAK signaling is critical for ErbB-2/ErbB-3 receptor cooperation for oncogenic transformation and invasion. J Cell Biol 2005; 171: 505-16).

[7] = tested on: OVCAR-3 (human ovarian carcinoma); assay: Ovarian carcinoma model OVCAR-3 in SCID mice; format: in vivo; conditions: QC-56 60 mg/kg/ip; CDDP 3 mg/kg
Description: • Species and strain: […] OVCAR-3 (human ovarian carcinoma). […] Control groups received the vehicle alone.

[8] = tested on: B16-BL6 cells (mouse melanoma); assay: B16-BL6 melanoma lung metastasis model; format: in vivo; conditions: QC-56 60 mg/kg i.p.; vehicle group 101 nodules
Protocol: • Species and strain: […] B16-BL6 cells (mouse melanoma). B16-BL6 metastatic variant was derived from B16-F10. This cell variant was obtained from Dr. Linda D. Williams, Dept. of Cancer Biology, MD Anderson Cancer Center, Texas, USA. […] Cells were maintained at 37° C. in a humidified atmosphere (5% CO2, 95% air). […] Control groups received the vehicle alone.

**Q.** With `O=c1[nH]cc(F)c(=O)[nH]1` [5-FU, reference compound] as the molecule, how does the mouse mortality ([1]; 60 mg/kg, HCT-116 model (FIG. 25)) read?
**A.** The mouse mortality was “induced mortality”.

**Q.** What about the “reduction of tumor volume at the time of sacrifice compared to control” value ([1]; QC-56 60 mg/kg/ip, 5-FU 60 mg/kg/ip reduced to 40 mg/kg) of the same molecule?
**A.** The value was “similar”.

**Q.** `CN(C)/N=N/c1[nH]cnc1C(N)=O` [Dacarbazine, reference compound] was tested. Which “inhibition of tumor growth compared to vehicle alone” value [2] did it give?
**A.** Its value is “approximately 24%”.

**Q.** And the “tumor size on the day of sacrifice” value [2]?
**A.** The value was 1.30±0.23 cm^3.

**Q.** And the “reduction of tumor volume vs vehicle” value (SKMEL-V+ cells [3])?
**A.** Its value is 21%.

**Q.** With `Cl.FC[C@@H]1CO[C@@](CCc2ccc(Cl)cc2)(Cn2ccnc2)O1` [QC-47, (2R,4S)-2-[2-(4-Chlorophenyl)ethyl]-2-[(1H-imidazol-1-yl)methyl]-4-(fluoromethyl)-1,3-dioxolane hydrochloride] as the molecule, how does the “oxidative protein damage (protein carbonyls) accruing from hHO-1 transfection” value ([4]; 6.5 μM) read?
**A.** The value was “significantly attenuated”.

**Q.** And the “dose dependence of attenuation of oxidative protein damage” value ([4]; transiently transfected rat astroglia, hydrochloride)?
**A.** The value was “significant dose dependant attenuations; also recorded: in a dose dependent manner significantly decreased”.

**Q.** What about the “HO activity in HO-1-transfected astroglia” value ([5]; 6.5 μM, 18 h, hHO-1-transfected cells, hydrochloride) of the same molecule?
**A.** Its value is “suppressed to levels akin to those of non-transfected and sham-transfected controls; also recorded: significantly attenuated; also recorded: significantly decreased”.

**Q.** What about the “expression level of flag-tagged HO-1 protein” value ([5]; 6.5 μM, transiently transfected cells) of the same molecule?
**A.** Its value is “without affecting the expression level of flag-tagged HO-1 protein”.

**Q.** And the IC50 ([5]; concentration of QC-47 used on HO-1-transfected astroglia, stated as IC50)?
**A.** The IC50 was 6.5 µM.

**Q.** How did the “% cell survival” value (SKMEL-V+ cells [6]) turn out when `Cl.FC(F)(F)c1ccc(CCCCn2ccnc2)cc1` [QC-234, 1-[4-(4-(Trifluoromethyl)phenyl)butyl]-1H-imidazole hydrochloride] was run?
**A.** The value was “Dose dependent decrease in cell survival”.

**Q.** Which “tumor size on the day of sacrifice” value [7] does the source give for `N.N.[Cl][Pt][Cl]` [cisplatin, reference compound] here?
**A.** Its value is 0.63±0.06 cm^3.

**Q.** What about the “macroscopic nodules in the lungs (average)” value [8] of the same molecule?
**A.** The value was 60.
